Assay results taken from patent publication US6562796B2, “Derivatives of polyene macrolides and preparation and use thereof” (Micrologix Biotech Inc., priority 2000, dated 2003).
Marks after values point to notes of the source that are not given here.

Experiments:
[1] = system: Candida albicans; assay: Minimum Inhibitory Concentration, broth dilution (NCCLS M27-A); assay type: cell-based
Experimental: Of course, compounds having MICs on the low end of these ranges, or even lower, are preferred. […] Toxicity is less of a concern for typical administration, as is water solubility.
(§1) For each compound Minimum Inhibitory Concentrations (MIC) were determined as described in Reference Method for Broth Dilution Antifungal Susceptibility Testing of Yeasts; Approved Standard; NCCLS document M27-A (ISBN 1-56238-328-0); NCCLS, 940 West Valley Road, Suite 1400, Wayne, Pa. 19087, 1997. […] Ten microliter samples were removed from the corresponding wells and deposited onto blood agar plates. Plates were incubated at 35° C. for 48 hours. The highest compound dilution at which no colonies are apparent on the plate was considered the MFC. Maximum non-lethal dose (NLD) data were also obtained for each product by initially intravenously administering a single 16 mg/kg dose to each of 4 mice in several groups. After review of findings, higher or lower doses were administered and a maximum non-lethal dose was determined. Ed50 data were also obtained for each compound. Efficacy was evaluated in mice injected with C. albicans. Therapeutic efficacy was defined as a 2 log reduction in kidney cfu relative to mean vehicle control.

[2] = system: Candida albicans; assay: Minimum Fungicidal Concentration, plating from MIC wells on blood agar; assay type: cell-based; conditions: blood agar plates, 35° C., 48 hours
Experimental: as §1

[3] = system: C. albicans; assay: Efficacy in mice injected with C. albicans (kidney cfu reduction); assay type: in vivo, Candida albicans; conditions: for ED50: Candida albicans, mice injected with C. albicans, efficacy = 2 log reduction in kidney cfu relative to mean vehicle control, read-out: ED50 Kidney CFU Red.; for level of Candida albicans in the kidneys of mice (FIG. 1): treated mice, compared with AME
Experimental: as §1

[4] = system: mice; conditions: cited from earlier work
[5] = Water solubility
[6] = system: mice; assay: Maximum non-lethal dose, single intravenous dose in mice; assay type: in vivo
Experimental: as §1

[7] = system: rats; conditions: compared with amphotericin B; cited from earlier work
[8] = system: dogs; conditions: compared with amphotericin B; cited from earlier work
[9] = system: patients with systemic fungal infections; conditions: human, in vivo; cited from earlier work

| SMILES | Micro. Data (DLM/CJ) MIC [1] | Micro. Data (DLM/CJ) MFC [2] | ED50 [3] | NLD (maximum non-lethal dose), literature value [4] | Water Sol. [5] | NLD (maximum non-lethal dose) [6] | level of Candida albicans in the kidneys of mice (FIG. 1) [3] | acute, nephro and hepto toxicity [7] | acute, nephro and hepto toxicity [8] | neurological toxicity in clinical trial [9] |
| --- | --- | --- | --- | --- | --- | --- | --- | --- | --- | --- |
| C[C@@H]1[C@H](O)[C@@H](C)/C=C/C=C/C=C/C=C/C=C/C=C/C=C/[C@H](O[C@@H]2O[C@H](C)[C@@H](O)[C@H](N)[C@@H]2O)C[C@@H]2O[C@](O)(C[C@@H](O)C[C@@H](O)[C@H](O)CC[C@@H](O)C[C@@H](O)CC(=O)O[C@H]1C)C[C@H](O)[C@H]2C(=O)O [AmB, amphotericin B, reference compound] | 0.5 | 2 | 3.58 mg/kg | 2-4* mg/kg | negligible | – | – | – | – | – |
| COC(=O)C1C2C[C@@H](OC3O[C@H](C)[C@@H](O)[C@H](NC[C@@]4(O)OC[C@@H](O)[C@H](O)[C@@H]4O)[C@@H]3O)/C=C/C=C/C=C/C=C/C=C/C=C/C=C/[C@H](C)[C@@H](O)[C@@H](C)[C@H](C)OC(=O)C[C@H](O)C[C@H](O)CC[C@@H](O)[C@H](O)C[C@H](O)C[C@](O)(C[C@@H]1O)O2 (stereo partly shown) [Compound C1, N-tagatopyranose-amphotericin B methyl ester] | 2 | 2 | < 3 mg/kg | – | >16 mg/mL | >64 mg/kg | significantly lower | – | – | – |
| COC(=O)C1C2C[C@@H](OC3O[C@H](C)[C@@H](O)[C@H](NC[C@@]4(O)OC[C@@H](O)[C@@H](OC5O[C@H](CO)[C@H](O)[C@H](O)[C@H]5O)[C@@H]4O)[C@@H]3O)/C=C/C=C/C=C/C=C/C=C/C=C/C=C/[C@H](C)[C@@H](O)[C@@H](C)[C@H](C)OC(=O)C[C@H](O)C[C@H](O)CC[C@@H](O)[C@H](O)C[C@H](O)C[C@](O)(C[C@@H]1O)O2 (stereo partly shown) [Compound C2] | 2 | 2 | < 3 mg/kg | – | >16 mg/mL | >64 mg/kg | significantly lower | – | – | – |
| COC(=O)[C@H]1[C@@H]2C[C@@H](O[C@@H]3O[C@H](C)[C@@H](O)[C@H](N)[C@@H]3O)/C=C/C=C/C=C/C=C/C=C/C=C/C=C/[C@H](C)[C@@H](O)[C@@H](C)[C@H](C)OC(=O)C[C@H](O)C[C@H](O)CC[C@@H](O)[C@H](O)C[C@H](O)C[C@](O)(C[C@@H]1O)O2 [AME, amphotericin B methyl ester] | 1 | 2 | – | – | – | – | – | lower acute, nephro and hepto toxicity than amphotericin B | lower acute, nephro and hepto toxicity than amphotericin B | many patients developed progressive neurological dysfunction associated with white matter degeneration |
